This passage reports IC50 results from patent publication US20080114031A1, “MONOSACCHARIDE DERIVATIVES” (priority 2006, published 2008).

Broadly, the IC50 is the concentration at which inhibition is half-maximal.

Assay [1] addresses T1, recombinant 5-Lox (Homo sapiens, UniProt P09917).
T1 sequence (P09917 1-674): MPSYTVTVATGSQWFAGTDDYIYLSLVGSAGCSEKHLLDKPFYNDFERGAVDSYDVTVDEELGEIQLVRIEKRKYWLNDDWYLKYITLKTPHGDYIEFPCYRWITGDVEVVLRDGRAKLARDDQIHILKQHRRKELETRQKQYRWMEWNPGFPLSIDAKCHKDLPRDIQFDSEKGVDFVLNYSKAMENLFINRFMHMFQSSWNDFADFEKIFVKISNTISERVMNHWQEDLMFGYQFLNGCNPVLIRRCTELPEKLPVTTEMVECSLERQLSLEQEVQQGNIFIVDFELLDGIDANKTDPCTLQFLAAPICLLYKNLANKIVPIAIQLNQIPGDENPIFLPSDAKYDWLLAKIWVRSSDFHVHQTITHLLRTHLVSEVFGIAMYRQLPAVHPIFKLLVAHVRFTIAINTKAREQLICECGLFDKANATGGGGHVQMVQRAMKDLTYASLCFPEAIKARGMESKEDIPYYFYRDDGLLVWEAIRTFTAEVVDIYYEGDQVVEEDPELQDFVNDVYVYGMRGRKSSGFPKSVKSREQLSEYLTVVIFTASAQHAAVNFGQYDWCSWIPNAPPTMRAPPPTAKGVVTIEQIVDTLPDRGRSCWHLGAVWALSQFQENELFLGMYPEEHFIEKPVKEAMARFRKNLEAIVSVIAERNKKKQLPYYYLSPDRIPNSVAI
The assay is described as follows: Assay for 5-Lipoxygenase Activity. Conditions: arachidonic acid, absorbance at 236 nm (AUC), range stated for the group of compounds tested, read-out: 5-1, poxygenase inhibition IC50. Format: biochemical. As for the experimental part: Assay for 5-Lipoxygenase Activity
In a 96 well UV-plate, 100 μl of phosphate buffer saline (PBS) containing DTT (200 μM), ATP (100 μM) and calcium chloride (100 μM) was added. To each well 0.5 μl of test drug (200 times concentrated) or vehicle was added, followed by 4 μl of recombinant 5-Lox (3 units/μl) and was incubated at 37° C. for 5 min. The reaction was initiated by adding 1 μl of 1 mM freshly prepared arachidonic acid and increase in absorbance was monitored at 236 nm for 10 min. (J Biol. Chem. 261:11512, 1986) A plot of absorbance verses time curve was prepared and area under curve (AUC) was computed for each well. Percent inhibition of AUC for different treatments was calculated with respect to the difference between the Arachidonic acid stimulated and negative control values, to compute IC50 values.

Assay [2] deals with LTB4 release. Kind of assay: A23187 Induced LTB4 Release. Conditions: Neutrophil; neutrophils from healthy human donors, 1 hour with test drug, 0.3 μg/ml A23187 for 10 min, LTB4 ELISA; range stated for the group of compounds tested; read-out: A123187 induced LTB4 release IC50. Format: cell-based. As for the experimental part:
The compounds of the present invention are tested in one or both of the assays described herein. Standard assays are used to evaluate activity of compounds in present invention on inflammatory cells. Attenuation of agonist-induced release of lipid mediator of neutrophil chemotaxis, leukotriene B4 (LTB4), is used to evaluate Inhibitory effect on neutrophils.
Venous blood was collected from healthy human donors using heparin as an anti-coagulant. Neutrophils were isolated from freshly drawn blood after dextran sedimentation and ficoll separation (Eur J Biochem. 169, 175, 1987), 180 μl of the of neutrophil suspension (0.2×10^6 cells/ml) was taken and added 19 μL of Hank's Buffer salt solution along with 1 μL of the test drug (200 times concentrated) in a 24 well plate and incubated at 37° C. for 1 hour, 3 minutes before the end of test compound incubation, 0.25 mM Ca^++/Mg^++ were added. Then, 0.3 μg/ml A23187 (Sigma Chem, USA) was added and incubated for further 10 min at 37° C. The reaction was stopped by adding 80 μL of cold methanol and centrifuged to remove cell debris (J Pharmacol Exp Ther. 297:267, 2001). The samples were analysed for LTB4 release using LTB4ELISA kits (Assay Design Inc., USA). The amount of LTB4 released was quantified and percent inhibition of LTB4 release was calculated with respect to the difference between the A23187 stimulated and negative control cells, to compute IC50 values.
(In general: In an ELISA, binding on a coated surface is turned into a signal by an enzyme label.)

As to `CC1(C)OCC(C2OC3OC(C)(C)OC3C2NC(=S)Nc2ccc(F)cc2)O1` [Compound No. 55, 1,2;5,6-Di-O-isopropylidene-3-deoxy-3-{[(4-fluorophenyl)-amino]thiocarbonyl}-amino-α-D-allofuranoside], the IC50 in assay [1] lay in the range of 0.3 to 10 µM.

For the compound `CC1(C)O[C@H]2O[C@H]([C@H]3COC(C)(C)O3)[C@@H](NC(=S)Nc3ccc(Cl)c(Cl)c3)[C@H]2O1` [Compound No. 60, 1,2;5,6-Di-O-isopropylidene-3-deoxy-3-{[(3,4-dichlorophenyl)-amino]thiocarbonyl}-amino-α-D-allofuranoside], the IC50 in assay [1] lay within 0.3 to 10 µM. Regarding `CC1(C)OCC(C2OC3OC(C)(C)OC3C2NC(=S)Nc2ccc(OCc3ccccc3)cc2)O1` [Compound No. 63, 1,2;5,6-Di-O-isopropylidene-3-deoxy-3-{[(4-benzyloxyphenyl)amino]thiocarbonyl}-amino-α-D-allofuranoside], the IC50 in assay [1] is 0.3 to 10 µM. Same read-out and setting: the figure for `CC1(C)O[C@H]2O[C@H]([C@H]3COC(C)(C)O3)[C@@H](NC(=S)Nc3ccccc3[N+](=O)[O-])[C@H]2O1` [Compound No. 67, 1,2;5,6-Di-O-isopropylidene-3-deoxy-3-{[(2-nitrophenyl)-amino]thiocarbonyl}-amino-α-D-allofuranoside] is 0.3 to 10 µM; for `CC1(C)OCC(C2OC3OC(C)(C)OC3C2NC(=S)Nc2ccc(C#N)cc2)O1` [Compound No. 68, 1,2;5,6-Di-O-isopropylidene-3-deoxy-3-{[(4-cyanophenyl)-amino]thiocarbonyl}-amino-α-D-allofuranoside] it is 0.3 to 10 µM. `CC1(C)OCC(C2OC3OC(C)(C)OC3C2NC(=O)Cc2ccccc2C(F)(F)F)O1` [Compound No. 80, 1,2;5,6-Di-O-isopropylidene-3-deoxy-3-{[(2-trifluoromethylphenyl)-methyl]carbonyl}-amino-α-D-allofuranoside]: the half-maximal inhibitory concentration (IC50) in assay [2] lay within 0.13 to 30 µM; in assay [1], 0.3 to 10 µM. `CC1(C)OCC(C2OC3OC(C)(C)OC3C2NC(=O)Cc2cccc(Cl)c2)O1` [Compound No. 84, 1,2;5,6-Di-O-isopropylidene-3-deoxy-3-{[(3-chlorophenyl)-methyl]carbonyl}-amino-α-D-allofuranoside]: the IC50 in assay [2] was 0.13 to 30 µM; in assay [1], 0.3 to 10 µM. For `CC1(C)OCC(C2OC3OC(C)(C)OC3C2NC(=O)Cc2ccc(Cl)c(Cl)c2)O1` [Compound No. 100, 1,2;5,6-Di-O-isopropylidene-3-deoxy-3-{[(3,4-dichlorophenyl)-methyl]carbonyl}-amino-α-D-allofuranoside], the results for the IC50 in assay [2] and in assay [1] were 0.13 to 30 µM and 0.3 to 10 µM, respectively. Regarding `CC1(C)OCC(C2OC3OC(C)(C)OC3C2NC(=S)Nc2ccc(F)cc2)O1` [Compound No. 101, 1,2;5,6-Di-O-isopropylidene-3-deoxy-3-{[(4-fluorophenyl)-amino]thiocarbonyl}-amino-α-D-glucofuranoside], the IC50 in assay [2] was in the range of 0.13 to 30 µM. As for `CC1(C)OCC(C2OC3OC(C)(C)OC3C2NC(=S)Nc2ccccc2F)O1` [Compound No. 103, 1,2;5,6-Di-O-isopropylidene-3-deoxy-3-{[(2-fluorophenyl)-amino]thiocarbonyl}-amino-α-D-glucofuranoside], the IC50 lay within 0.13 to 30 µM in assay [2] and 0.3 to 10 µM in assay [1].
